The test addresses Plasmodium falciparum phosphatidylserine decarboxylase (PfPSD) (Plasmodium falciparum, UniProt Q9GPP8). The test is described as follows: radiometric decarboxylase assay. It counts as biochemical.

pIC50: −log10 of the molar value.

Results on one molecule are retold here after paper PMC4898484 (Molecular microbiology, 2015).

As a reminder, the pIC50 is the negative decadic logarithm of the IC50, by convention in mol/L. A lower pIC50 goes with a high IC50.

Sequence of Plasmodium falciparum phosphatidylserine decarboxylase (PfPSD) (Q9GPP8 41-315): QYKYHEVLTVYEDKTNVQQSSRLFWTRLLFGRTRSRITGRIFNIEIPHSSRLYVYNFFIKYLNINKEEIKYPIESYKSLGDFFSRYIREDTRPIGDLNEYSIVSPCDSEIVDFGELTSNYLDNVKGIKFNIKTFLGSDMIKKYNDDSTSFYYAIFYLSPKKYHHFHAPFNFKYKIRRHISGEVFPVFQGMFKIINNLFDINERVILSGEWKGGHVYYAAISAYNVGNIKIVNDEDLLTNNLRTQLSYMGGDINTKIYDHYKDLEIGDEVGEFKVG
Sequence of Plasmodium falciparum phosphatidylserine decarboxylase (PfPSD) (Q9GPP8 316-362): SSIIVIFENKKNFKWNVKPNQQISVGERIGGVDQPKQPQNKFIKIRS

The molecule `CCCc1ccc(Nc2ccnc3cc(Cl)ccc23)cc1` [7CPQA, 7-chloro-N-(4-propylphenyl)-4-quinolinamine] showed a pIC50 of 4.00 to 5.00.
